Holding throughout (test): microbe, parasite or virus in culture
What all share (format): cell-based

In one test the test system is Septoria tritici. The following applies: Zymoseptoria tritici, 168 h.
The test system of a further test is Phytophthora infestans. The following applies: 168 h, read-out: Fungal growth at 31 ppm (%) PHYTIN.
The next test concerns Fusarium culmorum. The following applies: 168 h.

Molecule `CO/N=C(\C)c1cccc(/C(C)=N/OCc2c(C)cccc2/C(=N\OC)C(=O)OC)n1` [Example 31] yielded an activity at 31 ppm with Septoria tritici of 13%.

As to `CNC(=O)/C(=N/OC)c1cccc(C)c1CO/N=C(/c1cc(C(F)(F)F)ccn1)C1CC1` [Example 70, (2E)-2-[2-[[(E)-[cyclopropyl-[4-(trifluoromethyl)-2-pyridyl]methylene]amino]oxymethyl]-3-methyl-phenyl]-2-methoxyimino-N-methyl-acetamide], the activity at 31 ppm amounted to 0% in the test on Phytophthora infestans, 12% in the test on Fusarium culmorum and 0% in the test with Septoria tritici.

For `CNC(=O)/C(=N/OC)c1cccc(C)c1CO/N=C(\C)c1ncccc1C(F)F` [Example 33], the activity at 31 ppm came to 14% with Phytophthora infestans, 11% in the test on Fusarium culmorum and 4% in the test with Septoria tritici.

Turning to `CO/N=C(/C(=O)OC)c1cccc(C)c1CO/N=C(\C)c1cc(C(F)(F)F)cc(C)n1` [Example 46], the activity at 31 ppm came out at 0% in the test with Phytophthora infestans, 1% with Fusarium culmorum and 0% in the test on Septoria tritici.

`CNC(=O)/C(=N/OC)c1cccc(C)c1CO/N=C(\C)c1cc(C#N)ccn1` [Example 55]: the activity at 31 ppm in the test on Phytophthora infestans was 0%; in the test with Fusarium culmorum it was 12%; in the test on Septoria tritici, 8%.

Take `CO/N=C(/C(=O)OC)c1cccc(C)c1CO/N=C(\C)c1ccnc(C(F)(F)F)c1` [Example 47]: the activity at 31 ppm in the test on Phytophthora infestans stood at 0%; in the test on Fusarium culmorum it was 8%; in the test on Septoria tritici, 0%.

As for `CO/N=C(/C(=O)OC)c1cccc(C)c1CO/N=C(\C)c1cccc(OC)n1` [Example 6], in the test with Septoria tritici, the activity at 31 ppm amounted to 7%.

`CO/N=C(/C(=O)OC)c1cccc(C)c1CO/N=C(\C)c1cccnc1` [Example 131]: the activity at 31 ppm was found to be 0% with Phytophthora infestans and 17% in the test with Septoria tritici.

As to `CO/N=C(\C)c1ccnc(/C(C)=N/OCc2c(C)cccc2/C(=N\OC)C(=O)OC)c1` [Example 29, Methyl (2E)-2-methoxyimino-2-[2-[[(E)-1-[4-[(E)-N-methoxy-C-methyl-carbonimidoyl]-2-pyridyl]ethylideneamino]oxymethyl]-3-methyl-phenyl]acetate], the activity at 31 ppm in the test on Phytophthora infestans came to 1%; with Fusarium culmorum, 12%; in the test on Septoria tritici, 0%.

With `CO/N=C(/C(=O)OC)c1cccc(C)c1CO/N=C(\C)c1cc(C(F)(F)F)ccn1` [Example 4, Methyl (2E)-2-methoxyimino-2-[3-methyl-2-[[(E)-1-[4-(trifluoromethyl)-2-pyridyl]ethylideneamino]oxymethyl]phenyl]acetate], the results for the activity at 31 ppm with Fusarium culmorum and in the test on Septoria tritici were 10% and 11%, respectively.

Take `CO/N=C(/C(=O)OC)c1cccc(C)c1CO/N=C(\C)c1cccc(F)n1` [Example 106]: the activity at 31 ppm is 0% with Phytophthora infestans and 13% in the test with Septoria tritici.

Turning to `CNC(=O)/C(=N/OC)c1cccc(C)c1CO/N=C(\C)c1cccc(C(F)F)n1` [Example 10], the activity at 31 ppm with Phytophthora infestans was determined as 0%; in the test with Fusarium culmorum it was 9%; with Septoria tritici it was 2%.

As for `CO/N=C(/C(=O)OC)c1cccc(C)c1CO/N=C(\C)c1cc(C#N)ccn1` [Example 54], the activity at 31 ppm in the test with Phytophthora infestans came to 2%; in the test with Fusarium culmorum, 14%; with Septoria tritici, 4%.

In the case of `CO/N=C(/C(=O)OC)c1cccc(C)c1CO/N=C(\C)c1cnc(Cl)c(Cl)c1` [Example 87], the activity at 31 ppm in the test on Phytophthora infestans is 0%; in the test on Fusarium culmorum it was 17%; in the test with Septoria tritici, 1%.

Consider `CNC(=O)/C(=N/OC)c1cccc(C)c1CO/N=C(\C)c1cccc(SC)n1` [Example 93], for which the activity at 31 ppm in the test on Phytophthora infestans came out at 0%; in the test with Fusarium culmorum it was 17%; with Septoria tritici, 13%.

As to `CO/N=C(/C(=O)OC)c1cccc(C)c1CO/N=C(\C)c1cc(C(F)(F)F)ncn1` [Example 113, Methyl (2E)-2-methoxyimino-2-[3-methyl-2-[[(E)-1-[6-(trifluoromethyl)pyrimidin-4-yl]ethylideneamino]oxymethyl]phenyl]acetate], the activity at 31 ppm is 0% in the test on Phytophthora infestans, 1% with Fusarium culmorum and 0% with Septoria tritici.

`CNC(=O)/C(=N/OC)c1cccc(C)c1CO/N=C(\C)c1cc(C(F)(F)F)ccn1` [Example 5, (2E)-2-methoxyimino-N-methyl-2-[3-methyl-2-[[(E)-1-[4-(trifluoromethyl)-2-pyridyl]-ethylideneamino]oxymethyl]phenyl]acetamide]: the activity at 31 ppm with Phytophthora infestans stood at 20%; with Fusarium culmorum it was 8%; with Septoria tritici, 19%.

Consider `CNC(=O)/C(=N/OC)c1cccc(C)c1CO/N=C(\C)c1cnc(Cl)c(Cl)c1` [Example 88], for which the activity at 31 ppm is 0% with Phytophthora infestans, 14% with Fusarium culmorum and 9% with Septoria tritici.

Turning to `CNC(=O)/C(=N/OC)c1cccc(C)c1CO/N=C(\C)c1ncnc(Cl)c1F` [Example 108], the activity at 31 ppm worked out at 0% with Phytophthora infestans, 8% with Fusarium culmorum and 0% in the test with Septoria tritici.

For `CO/N=C(/C(=O)OC)c1cccc(C)c1CO/N=C(\C)c1cc(C(F)F)ccn1` [Example 34], the activity at 31 ppm in the test with Phytophthora infestans is 1%; in the test with Fusarium culmorum it was 10%; in the test on Septoria tritici, 0%.

As to `CNC(=O)/C(=N/OC)c1cccc(C)c1CO/N=C(\C)c1cc(C(F)(F)F)cc(Cl)n1` [Example 43], the activity at 31 ppm turned out to be 9% with Phytophthora infestans, 14% in the test on Fusarium culmorum and 13% with Septoria tritici.

Consider `CO/N=C(/C(=O)OC)c1cccc(C)c1CO/N=C(\C)c1cc(-c2ccc(F)cc2)sn1` [Example 11, Methyl (2E)-2-[2-[[(E)-1-[5-(4-fluorophenyl)isothiazol-3-yl]ethylideneamino]oxymethyl]-3-methyl-phenyl]-2-methoxyimino-acetate], for which the activity at 31 ppm in the test with Septoria tritici was 10%.

For `CO/N=C(/C(=O)OC)c1cccc(C)c1CO/N=C(\C)c1cncc(C(F)(F)F)c1` [Example 84, methyl (2E)-2-methoxyimino-2-[3-methyl-2-[[(E)-1-[5-(trifluoromethyl)-3-pyridyl]ethylideneamino]oxymethyl]phenyl]acetate], the figures for the activity at 31 ppm in the test with Phytophthora infestans, in the test on Fusarium culmorum and in the test on Septoria tritici were 0%, 12% and 1%, respectively.

`CO/N=C(/C(=O)OC)c1cccc(C)c1CO/N=C(\C)c1cc(C(F)(F)F)nc(C)n1` [Example 57]: the activity at 31 ppm in the test with Phytophthora infestans came to 2%; with Fusarium culmorum it was 12%; in the test on Septoria tritici it was 14%.

In the case of `CO/N=C(/C(=O)OC)c1cccc(C)c1CO/N=C(\C)c1cccc(C(F)F)n1` [Example 9], the activity at 31 ppm with Phytophthora infestans is 5%; in the test with Septoria tritici it was 4%.

On to `CO/N=C(/C(=O)OC)c1cccc(C)c1CO/N=C(\C)c1cnc(C(F)(F)F)cn1` [Example 96, Methyl (2E)-2-methoxyimino-2-[3-methyl-2-[[(E)-1-[5-(trifluoromethyl)pyrazin-2-yl]ethylideneamino]oxymethyl]phenyl]acetate], for which the values for the activity at 31 ppm in the test with Phytophthora infestans, in the test on Fusarium culmorum and with Septoria tritici were 0%, 13% and 18%, respectively.

For `CO/N=C(/C(=O)OC)c1cccc(C)c1CO/N=C(\C)c1ncccc1C(F)F` [Example 24], the activity at 31 ppm is 18% in the test with Phytophthora infestans and 0% in the test with Septoria tritici.

Take `CNC(=O)/C(=N/OC)c1cccc(C)c1CO/N=C(\C)c1cc(/C(C)=N/OC)ccn1` [Example 30, (2E)-2-Methoxyimino-2-[2-[[(E)-1-[4-[(E)-N-methoxy-C-methyl-carbonimidoyl]-2-pyridyl]ethylideneamino]oxymethyl]-3-methyl-phenyl]-N-methyl-acetamide]: the values for the activity at 31 ppm with Phytophthora infestans, with Fusarium culmorum and in the test on Septoria tritici were 0%, 10% and 2%, respectively.

On to `CO/N=C(/C(=O)OC)c1cccc(C)c1CO/N=C(\C)c1cccc(C)n1` [Example 65], for which the activity at 31 ppm is 1% in the test with Phytophthora infestans and 0% in the test on Septoria tritici.

Take `CNC(=O)/C(=N/OC)c1cccc(C)c1CO/N=C(\C)c1cccc(C(F)(F)F)n1` [Example 2]: the activity at 31 ppm in the test with Phytophthora infestans was 18%; in the test on Fusarium culmorum, 7%; in the test with Septoria tritici it was 12%.

`CO/N=C(/C(=O)OC)c1cccc(C)c1CO/N=C(\C)c1cc(C)ccn1` [Example 25]: the activity at 31 ppm in the test on Phytophthora infestans and in the test with Septoria tritici was 0% each time.

With `CO/N=C(/C(=O)OC)c1cccc(C)c1CO/N=C(\C)c1ccnc(SC)c1` [Example 94], the activity at 31 ppm in the test on Phytophthora infestans was 1%; in the test with Fusarium culmorum it was 15%; in the test with Septoria tritici it was 1%.

Consider `CO/N=C(/C(=O)OC)c1cccc(C)c1CO/N=C(\C)c1cc(C#N)cc(Cl)n1` [Example 64], for which the activity at 31 ppm is 21% with Phytophthora infestans and 17% in the test with Septoria tritici.

For the molecule `CNC(=O)/C(=N/OC)c1cccc(C)c1CO/N=C(\C)c1cc(C(F)F)ccn1` [Example 37], the activity at 31 ppm in the test with Phytophthora infestans stood at 0%; in the test on Fusarium culmorum, 12%; in the test on Septoria tritici, 3%.

Regarding `CO/N=C(/C(=O)OC)c1cccc(C)c1CO/N=C(\C)c1ncccc1F` [Example 74], the values for the activity at 31 ppm in the test on Phytophthora infestans and with Septoria tritici were 0% and 21%, respectively.

For `CNC(=O)/C(=N/OC)c1cccc(C)c1CO/N=C(\C)c1cc(-c2ccccc2)on1` [Example 23], the figures for the activity at 31 ppm in the test on Phytophthora infestans and with Fusarium culmorum were 1% and 5%, respectively.

Take `CO/N=C(/C(=O)OC)c1cccc(C)c1CO/N=C(\C)c1ncccc1C(F)(F)F` [Example 27, Methyl (2E)-2-methoxyimino-2-[3-methyl-2-[[(E)-1-[3-(trifluoromethyl)-2-pyridyl]-ethylideneamino]oxymethyl]phenyl]acetate]: in the test on Septoria tritici, the activity at 31 ppm worked out at 5%.

In the case of `CNC(=O)/C(=N/OC)c1cccc(C)c1CO/N=C(\C)c1cc(C(F)(F)F)cc(C)n1` [Example 80], the activity at 31 ppm amounted to 0% with Phytophthora infestans and 16% in the test with Fusarium culmorum.

The values above are taken from patent EP3970494A1 (priority 2020, dated 2022).
